The test system of data set [1] is HDACs HeLa cells nuclear extract. Kind of data set: HDAC inhibitory activity, fluorometric kit, HeLa cell nuclear extract. The data set is classed as biochemical, human. The settings on record: HeLa cell nuclear extract as HDAC source.

The structures appear in SMILES notation.

Data on four molecules can be found in paper PMC6412891, “Synthesis and Biological Evaluation of Novel Thiazolyl-Coumarin Derivatives as Potent Histone Deacetylase Inhibitors with Antifibrotic Activity” (Molecules, 2019).

A word on the IC50: it is the concentration at which inhibition is half-maximal. By melting point is commonly meant the temperature, or range, at which the solid turns liquid.

In the case of `O=C(CCCCC1CCSS1)Nc1nc(-c2cc3ccccc3oc2=O)cs1` (stereo not drawn) [Compound 5a, 5-[1,2]-Dithiolan-3-yl-N-[4-(2-oxo-2H-chromen-3-yl)-thiazol-2-yl]-pentanamide], the melting point fell in the range of 91 to 92 °C. The molecule also returned a half-maximal inhibitory concentration (IC50) in data set [1] of 66.7 ± 2.9 nM.
For the molecule `O=C(Nc1nc(-c2cc3ccccc3oc2=O)cs1)c1ccc(O)c(O)c1` [Compound 6a], the IC50 in data set [1] is 574 ± 24.4 nM.
On the same count and under the same terms, in the case of `O=C(O)CCCCC(=O)Nc1nc(-c2cc3ccccc3oc2=O)cs1` [Compound 7a] it was 6100 ± 390 nM.
In the case of `O=C(CCCCC(=O)Nc1nc(-c2cc3ccccc3oc2=O)cs1)NO` [Compound 8a, 5-[4-(2-Oxo-2H-chromen-3-yl)-thiazol-2-yl-carbamoyl]-N-hydroxypentanamide], the melting point was 150 to 152 °C (dec.). Moreover, the concentration for half-maximal inhibition (IC50) in data set [1] was 66.9 ± 1.8 nM.
